From US20210260009A1, “METHODS AND COMPOSITIONS FOR THE TREATMENT OF A RENAL DISEASE” (priority 2020, published 2021)

Columns and labels:
E. coli lysates = test: Pull-down of S-sulfhydrated proteins from E. coli lysates (Coomassie / silver stain)
E. coli TnaA = target: T1, E. coli TnaA (Escherichia coli, UniProt P0A853); test: TnaA S-sulfhydration by pull-down and Western blot (E. coli lysates, purified TnaA); assay type: biochemical
T1 construct: made in house; host or cells: E. coli K-12 carrying the chromosomal tnaA-his allele under its native promoter (W3110 for purification)
T1 sequence (P0A853 other isoform, or with tags, fused parts or gaps): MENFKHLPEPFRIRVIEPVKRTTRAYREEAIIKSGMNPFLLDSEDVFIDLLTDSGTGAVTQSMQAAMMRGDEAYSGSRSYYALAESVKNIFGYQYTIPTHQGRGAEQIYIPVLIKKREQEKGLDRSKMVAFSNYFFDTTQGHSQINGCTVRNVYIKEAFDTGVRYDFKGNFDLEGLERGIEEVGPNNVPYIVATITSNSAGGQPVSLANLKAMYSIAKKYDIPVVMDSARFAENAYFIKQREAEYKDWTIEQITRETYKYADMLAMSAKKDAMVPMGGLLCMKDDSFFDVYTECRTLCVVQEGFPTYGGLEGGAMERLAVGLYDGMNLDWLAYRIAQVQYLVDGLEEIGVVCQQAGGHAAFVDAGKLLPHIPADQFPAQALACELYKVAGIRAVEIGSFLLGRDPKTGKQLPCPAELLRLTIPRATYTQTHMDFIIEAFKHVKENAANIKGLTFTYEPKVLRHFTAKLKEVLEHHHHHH
Experimental: TnaA purity was determined by Coomassie blue staining.

WT E. coli cultures = test: Indole in E. coli culture supernatants (Kovac's reagent and LC-MS/MS); assay type: cell-based; details: LB broth supplemented
Experimental: (§1) E. coli K-12 BW25113 strain were used in all the experiments (H2S production, indole production and in vivo experiments). For technical reasons, E. coli K-12 MG1655 was used in the cloning process to generate ΔdecR and tnaA-his, and E. coli K-12 W3110 was used for expressing and purifying TnaA-His. Bacteria were grown in LB broth (Merck) at 37° C. with shaking (250 rpm) aerobically or without shaking anaerobically and where mentioned, LB was supplemented with L-cysteine (Sigma-Aldrich), sodium hydrosulfide (Sigma-Aldrich) and/or L-tryptophan (Sigma-Aldrich). For selection on LB+Chloramphenicol (Cm) agar plates, a concentration of 10 μg/ml Cm was used. The E. coli tnaA739::kan strain was obtained from Yale University Coli Genetic Stock Center (CGSC) as part of the Keio collection (Baba et al., 2006). […]
The TMT fractions were analyzed by LC-MS3 on an Orbitrap Fusion™ Lumos™ Tribrid™ mass spectrometer. Labelled peptide samples were analyzed with an LC-MS3 data collection strategy (McAlister G C et al (2014) Anal. Chem. 86:7150-8) on an Orbitrap Fusion mass spectrometer (Thermo Fisher Scientific) equipped with a Thermo Easy-nLC 1200 for online sample handling and peptide separations. […] E. coli TnaA-His samples were analyzed at the Mass Spectrometry and Proteomics Resource Laboratory. […]

[1] = target: T2, E. coli apo-tryptophanase (TnaA) (Escherichia coli, UniProt P0A853); test: In vitro tryptophanase assay (indole production by purified TnaA, Kovac's reagent); assay type: biochemical
T2 construct: purchased Sigma-Aldrich
T2 sequence (P0A853 whole entry): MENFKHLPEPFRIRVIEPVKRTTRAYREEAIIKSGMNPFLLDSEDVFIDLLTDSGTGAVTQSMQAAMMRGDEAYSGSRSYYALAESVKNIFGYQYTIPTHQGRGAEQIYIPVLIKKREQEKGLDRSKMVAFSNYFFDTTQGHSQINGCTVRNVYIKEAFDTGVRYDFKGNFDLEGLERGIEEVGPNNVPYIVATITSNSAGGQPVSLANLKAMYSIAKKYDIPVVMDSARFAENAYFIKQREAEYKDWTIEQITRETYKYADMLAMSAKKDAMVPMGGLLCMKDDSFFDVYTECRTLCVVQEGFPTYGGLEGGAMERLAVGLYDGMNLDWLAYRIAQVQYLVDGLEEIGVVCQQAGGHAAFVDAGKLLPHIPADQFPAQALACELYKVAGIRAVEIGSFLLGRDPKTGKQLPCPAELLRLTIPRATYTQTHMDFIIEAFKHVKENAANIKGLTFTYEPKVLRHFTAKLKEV
Experimental: E. coli apo-tryptophanase (Sigma-Aldrich) was resuspended in 1 ml 100 mM potassium phosphate pH 8 buffer, aliquoted and kept at −20° C. 5 μl of apo-tryptophanase were added to 120 μl of 100 mM potassium phosphate pH 8 buffer with 1 mM pyrodxal-5-phosphate (PLP) and various treatments (NaCl, NaHS, L-cysteine, DTT or Na2S4) and incubated for 45 min at 37° C. Then 125 μl of 100 mM potassium phosphate with 5 mM L-tryptophan were added and the samples were incubated for 1 h at 37° C. Then 250 μl of 20% TCA were added to the samples, followed by a 15 min incubation on ice to precipitate TnaA. […] For the WT and ΔdecR TnaA activity assay, TnaA was purified from 10 ml bacterial cultures grown for 3 h in LB and then supplemented with 5 mM L-cysteine for 1 h, using the His-Spin protein miniprep kit (Zymo research). The purified protein was diluted 1:10 in 250 μl of 100 mM potassium phosphate pH 8 buffer with 1 mM PLP and 5 mM L-tryptophan and incubated for 1 h at 37° C., further processing was performed as mentioned above. TnaA activity was normalized to purified protein concentration, measured using BCA assay kit (Thermo Fisher).

E. coli = E. coli sulfide (H2S) production from L-cysteine in culture (lead acetate, methylene blue) and growth; assay type: cell-based; details: LB supplemented with cysteine, aerobic or anaerobic
Experimental: as §1, with “used.” for “used. The E. coli tnaA739::kan strain was obtained from Yale University Coli Genetic Stock Center (CGSC) as part of the Keio collection (Baba et al., 2006).”
Lead acetate paper was prepared by incubating pre-cut Whatman paper in 20 mM lead acetate solution for 20 min at room temperature and then was dried for 20 min at 110° C. and kept in the dark (Hine and Mitchell, 2017). […] 200 μl were plated in 96-well plates in duplicate and analyzed by lead acetate sulfide assay as described above. […] The samples were vortexed briefly and incubated for 20 min at 37° C., thereafter they were centrifuged for 4 min at max speed and the supernatants were transferred to a 96-well plate to determine absorbance at OD670 nm. […] Then 300 μl of DPD/FeCl3 were added and the samples were incubated at 37° C. for 20 min, centrifuged for 4 min at max speed and absorbance was measured in OD670 nm. […]

[2] = treated E. coli lysates, Western blot

SMILES	S-sulfhydration of proteins (E. coli lysates; treatment of bacterial lysates)	TnaA S-sulfhydration (E. coli TnaA; [2])	indole concentrations in the supernatants (WT E. coli cultures)	further results
OO [H2O2]	reduced the detection of S-sulfhydration proteins	reduced	–	–
S [NaHS, sodium hydrosulfide]	induced higher S-sulfhydration levels	increased	reduced indole concentrations	–
O[C@H](CS)[C@H](O)CS (racemic) [DTT, dithiothreitol]	–	–	–	increase of TnaA activity ([1]; assay control): 318%
N[C@@H](CS)C(=O)O [cysteine, L-cysteine]	–	–	reduced indole concentrations	S-sulfhydration of proteins (E. coli lysates; lysates of E. coli grown in supplemented media vs LB alone): higher level of S-sulfhydration; E. coli growth (E. coli): without any effects on growth; sulfide production by E. coli (E. coli; lead acetate assay): dose-dependent manner
[Na+].[Na+].[S-]SS[S-] [Na2S4, disodium tetrasulfide]	–	–	–	TnaA S-sulfhydration (E. coli TnaA; purified E. coli TnaA, incubation): led to TnaA S-sulfhydration; reduction of TnaA enzymatic activity [1]: 60%
